Measurements as given in patent US20030229451A1, “Methods and systems for analyzing complex biological systems” (priority 2001, published 2003).

Assays:
[1] = tested on: Arabidopsis thaliana; test: MOA1 biochemical (metabolite) profiling by LC-MS and GC-MS
[2] = tested on: Arabidopsis thaliana plants; test: SOA1 phenotypic analysis of herbicide-treated Arabidopsis (MIC, Tmic, leaf traits); assay type: in vivo; conditions: for leafCurling Dev. / leafTwisting Dev. / leafWidth Dev. / matureLeafAnthocyanins Dev. / matureLeafChlorosis Dev. / matureLeafNecrosis Dev. / newLeafAnthocyanins Dev. / newLeafChlorosis Dev. / newLeafNecrosis Dev. / pointedLeaves Dev.: numeric value standardized to mock treated; for tMic Dev.: time to full range of symptoms at MIC, coded; for characteristic morphological symptoms: herbicide-treated Arabidopsis

| SMILES | Number of Metabolites Changed: (unknown #) ([1]; 20 min, p < 0.05) | Number of Metabolites Changed: Total # ([1]; 20 min, p < 0.05) | Number of Metabolites Changed: (unknown #) ([1]; 20 min, p < 0.11) | Number of Metabolites Changed: Total # ([1]; 20 min, p < 0.11) | Number of Metabolites Changed: (unknown #) ([1]; 1 hr, p < 0.05) | Number of Metabolites Changed: Total # ([1]; 1 hr, p < 0.05) | Number of Metabolites Changed: (unknown #) ([1]; 1 hr, p < 0.11) | Number of Metabolites Changed: Total # ([1]; 1 hr, p < 0.11) | leafCurling Dev. [2] | leafTwisting Dev. [2] | leafWidth Dev. [2] | matureLeafAnthocyanins Dev. [2] | matureLeafChlorosis Dev. [2] | matureLeafNecrosis Dev. [2] | newLeafAnthocyanins Dev. [2] | newLeafChlorosis Dev. [2] | newLeafNecrosis Dev. [2] | pointedLeaves Dev. [2] | tMic Dev. [2] | characteristic morphological symptoms [2] | also measured |
| --- | --- | --- | --- | --- | --- | --- | --- | --- | --- | --- | --- | --- | --- | --- | --- | --- | --- | --- | --- | --- | --- |
| CC(C)OC(=O)Nc1cccc(Cl)c1 [Chloropropham] | 8 | 12 | 10 | 17 | 5 | 12 | 10 | 20 | – | – | – | – | – | – | – | – | – | – | – | – | – |
| O=C(O)COc1ccc(Cl)cc1Cl [2,4-D] | 2 | 3 | 8 | 13 | 3 | 7 | 15 | 25 | 1 | 2 | −1 | 1 | 2 | 0 | 0 | 1 | 0 | 0 | 2 | – | Symptom Class ([2]; three-week-old Arabidopsis, phenotype class (FIG. 12)): 5 |
| Nc1nc[nH]n1 [Amitrole] | 6 | 9 | 13 | 17 | 8 | 14 | 20 | 32 | −1 | 0 | 2 | 0 | 3 | 0 | 0 | 4 | 0 | 0 | 2 | leaf bleaching and leaf enlargement | – |
| CCc1cccc(C)c1N(C(=O)CCl)C(C)COC (centres unmarked) [Metolachlor] | 25 | 38 | 34 | 54 | 11 | 18 | 22 | 45 | 2 | 1 | −1 | 0 | 0 | 3 | 0 | 0 | 3 | 1 | 2 | – | – |
| CN(C)C(=O)Nc1ccc(Cl)c(Cl)c1 [Diuron] | – | – | – | – | – | – | – | – | 1 | 0 | −2 | 0 | 2 | 4 | 0 | 2 | 4 | 1 | 1 | rapid and widespread leaf necrosis | – |
| CSc1nnc(C(C)(C)C)c(=O)n1N [Metribuzin] | – | – | – | – | – | – | – | – | 1 | 0 | −2 | 0 | 2 | 4 | 0 | 2 | 4 | 1 | 1 | rapid and widespread leaf necrosis | – |
| c1cc[n+]2c(c1)-c1cccc[n+]1CC2 [Diquat] | – | – | – | – | – | – | – | – | 2 | 0 | −2 | 0 | 1 | 4 | 0 | 1 | 4 | 1 | 2 | rapid and widespread leaf necrosis | – |
| CNc1cnn(-c2cccc(C(F)(F)F)c2)c(=O)c1Cl [Norflurazon] | 27 | 38 | 36 | 55 | 5 | 6 | 8 | 12 | – | – | – | – | – | – | – | – | – | – | – | – | – |
| CCc1cnc(C2=NC(C)(C(C)C)C(=O)N2)c(C(=O)O)c1 (centres unmarked) [Imazethapyr] | – | – | – | – | – | – | – | – | 1 | 1 | 0 | 3 | 0 | 0 | 0 | 2 | 0 | 0 | 2 | anthocyanin accumulation in the older leaves accompanied by chlorosis of the newly emerging leaves | – |
| COC(=O)c1cc(Oc2ccc(Cl)cc2Cl)ccc1[N+](=O)[O-] [Bifenox] | – | – | – | – | – | – | – | – | 1 | 0 | 0 | 0 | 0 | 1 | 0 | 0 | 3 | 0 | 1 | Necrotic leaf flecks | – |
| CCSC(=O)N(CC(C)C)CC(C)C [Butylate] | 10 | 17 | 21 | 33 | 12 | 18 | 22 | 31 | – | – | – | – | – | – | – | – | – | – | – | – | – |
| O=C(O)Cn1c(=O)sc2cccc(Cl)c21 [Benazolin] | – | – | – | – | – | – | – | – | 2 | 2 | −2 | 0 | 0 | 0 | 0 | 0 | 0 | 0 | 2 | – | – |
| CCC(C)(CC)c1cc(NC(=O)c2c(OC)cccc2OC)on1 [Isoxaben] | 12 | 26 | 21 | 45 | 16 | 25 | 33 | 55 | – | – | – | – | – | – | – | – | – | – | – | – | – |
| COc1c(Cl)ccc(Cl)c1C(=O)O [Dicamba] | – | – | – | – | – | – | – | – | 2 | 2 | −2 | 0 | 2 | 0 | 0 | 0 | 0 | 0 | 2 | – | – |
